Reference: patent US20250108036A1, “COMPOSITIONS FOR REMOVING SENESCENT CELLS AND USES THEREOF” (LIFECEUTIX CO., LTD., priority 2021, published 2025)

B1: LX-3103: CAS 9015-68-3 (protein, UniProt P00805 23-348, looked up)
L-asparaginase 2: LPNITILATGGTIAGGGDSATKSNYTVGKVGVENLVNAVPQLKDIANVKGEQVVNIGSQDMNDNVWLTLAKKINTDCDKTDGFVITHGTDTMEETAYFLDLTVKCDKPVVMVGAMRPSTSMSADGPFNLYNAVVTAADKASANRGVLVVMNDTVLDGRDVTKTNTTDVATFKSVNYGPLGYIHNGKIDYQRTPARKHTSDTPFDVSKLNELPKVGIVYNYANASDLPAKALVDAGYDGIVSAGVGNGNLYKSVFDTLATAAKTGTAVVRSSRVPTGATTQDAEVDDAKYGFVASGTLNPQKARVLLQLALTQTKDPQQIQQIFNQY

How the values were obtained:
Type in all cases: cell-based, human
senescent foreskin cells = assay: survival of senescent foreskin cells treated with medium supernatant (secreted fluid) of compound-killed cells (Example 13, Tables 68, 69); settings: culture medium supernatant from dying senescent cells treated with compound at 30 μM, 90 μM or 270 μM; senescent foreskin cells
Experimental: (§1) After 3 days, cell viability was measured using CellTiter-Glo Luminescent Cell Viability Assay (Promega) or light microscopy.
During this additional culture, by checking with an optical microscope, etc., the medium supernatants containing secreted fluid from normally proliferating and senescent cells in which cell death was induced were obtained. The obtained medium supernatant was replaced with the medium of normally proliferating and senescent cells, respectively, and cell survival rate was measured after 3 days.

HMGN1 [1] = assay: HMGN1 ELISA in culture medium of foreskin cells (Examples 10, 11; Tables 62, 63, 64); settings: doxorubicin-treated foreskin cells, DMSO = 100
HMGN1 [2] = assay: HMGN1 ELISA in culture medium of A549 cancer cells (Example 12, Table 66); settings: doxorubicin-induced senescent A549 cells, ELISA, DMSO = 100
[3] = system: foreskin cells in which senescence was induced by doxorubicin; assay: CellTiter-Glo cell viability of doxorubicin-induced senescent foreskin cells (Examples 1-2, 10, 11, 13; Tables 4, 63, 65); settings: doxorubicin-induced senescent foreskin cells, CellTiter-Glo, 0 μM = 100
Experimental: as §1

A549 = assay: CellTiter-Glo cell viability of senescent A549 cancer cells (Example 12, Table 67); settings: doxorubicin-induced senescent A549 cancer cells, CellTiter-Glo

| Molecule | Survival (senescent foreskin cells) | HMGN1 (HMGN1 [1]; 30 μM test compound) | HMGN1 (amount of HMGN1 secreted in the cell culture) (HMGN1 [2]; test compound 30 μM) | Survival (%) ([3]; 1.1 μM test compound) | Survival (%) ([3]; 10 μM test compound) | Survival (%) ([3]; 30 μM test compound) | Survival (%) ([3]; […] test compound) | Survival (%) (A549; 1.1 μM test compound) | Survival (%) (A549; 10 μM test compound) | Survival (%) (A549; 30 μM test compound) | HMGN1 (HMGN1 [1]; 90 μM test compound) | HMGN1 (amount of HMGN1 secreted in the cell culture) (HMGN1 [2]; test compound 90 μM) | Survival (%) ([3]; 90 μM test compound) | Survival (%) (A549; 90 μM test compound) | HMGN1 (HMGN1 [1]; 20 ng/ml test compound) | HMGN1 (amount of HMGN1 secreted in the cell culture) (HMGN1 [2]; test compound 20 ng/ml) |
| --- | --- | --- | --- | --- | --- | --- | --- | --- | --- | --- | --- | --- | --- | --- | --- | --- |
| C[N+](C)(C)CCO.C[N+](C)(C)CCO.[SH-].[SH-].[S]=[Mo]=[S] [LX-2601] | 67.3 | 263 | 193 | 95.2% | 58.6% | 21.8% | 81.8% | 98.6% | 59.7% | 50.7% | – | – | – | – | – | – |
| CCOC(=O)[C@@H](N)CCC(=O)N[C@@H](CSCc1ccccc1)C(=O)N[C@@H](C(=O)OCC)c1ccccc1 [LX-2602, Ezatiostat, reference compound] | 69.5 | 208 | 283 | 97.3% | 76.9% | 47.6% | 92.5% | 102.7% | 96% | 32.5% | – | – | – | – | – | – |
| CN(Cc1cnc2nc(N)nc(N)c2n1)c1ccc(C(=O)N[C@@H](CCC(=O)O)C(=O)O)cc1 [LX-2901, Methotrexate, reference compound] | 97.5 | – | – | 103.3% | 104.8% | 93.6% | 97.8% | 89% | 90.4% | 92.3% | 167 | 189 | 49.9% | 37.2% | – | – |
| C[Se](=O)O [LX-3105, Methylseleninic acid] | 69.1 | 195 | – | 82.1% | 41.1% | 37.7% | 59.5% | 84% | 69.9% | 59.3% | – | 202 | 4.1% | 39.6% | – | – |
| Cc1nc(-c2nc(-c3ccc(OC(F)(F)F)cc3)no2)nn1Cc1cccc(N2CCC(S(C)(=O)=O)CC2)c1 [LX-3200] | 54.9 | 234 | 305 | 92.2% | 14.3% | – | 78.6% | 94.9% | 61.6% | 1.6% | – | – | – | – | – | – |
| LX-3401: Interferon gamma, CAS 98059-61-1 (IFNy-1b), 82115-62-6 | 66.8 | – | – | 101.8% | 75.8% | 35.4% | 98.1% | 110.8% | 58.3% | 5.8% | – | – | – | – | 198 | 284 |
| Tocofersolan [LX-3001, reference compound] | 58.7 | 301 | 261 | 74.8% | – | – | 1.1% | 101.6% | 22.6% | – | – | – | – | – | – | – |
| [3,4,5-triacetyloxy-6-[4-[2-[(dimethylamino)methyl]prop-2-enoyl]phenoxy]oxan-2-yl]methyl acetate [LX-918] | 63.8 | 247 | – | 98.9% | 94.5% | 32.7% | 95.4% | 103.8% | 86.7% | 82.9% | – | 200 | – | 31.8% | – | – |
| B1 | 64.3 | 243 | 254 | 84.4% | 48.5% | 25% | 71.2% | 68.7% | 21.1% | – | – | – | – | – | – | – |
